Assay results published in patent US6489469B1, “Method for storing or transporting erythritol solution” (Nikken Chemicals Co., Ltd., priority 1999, dated 2002).

Tested on: Saccharomyces cerevisiae ATCC 9763
Assay: Viable Count of Saccharomyces cerevisiae ATCC 9763 in Erythritol Solution
Format: cell-based
Method: Erythritol solutions of respective concentrations in the range of from 30 to 60% were prepared. To these were inoculated Staphylococcus aureus IFO 13276, Bacillus subtilis IFO 3134, and Escherichia coli IFO 3972 as bacteria, Candida albicans IFO 1549 and Saccharomyces cerevisiae ATCC 9763 as yeasts, Aspergillus niger IFO 6342, Aspergillus flavus IFO 6343, and Penicillium funiculosum IFO 6345 as fungi, respectively, in a population (concentration) of 10,000 cells/mL or more. After the inoculation, the solutions were stored at 30, 37, 45, 50, or 60° C., respectively, for 56 days and the number of viable cell was determined daily. The determination of the number of viable cell was performed by a method of coating 0.1 mL of appropriately diluted sample cultivation on an agar plate and cultivating and counting the number of viable cell (the number of colony) that grew after the cultivation.

OC[C@@H](O)[C@@H](O)CO [Erythritol Solution, erythritol]
1480 cells/mL: The Number of Viable Cell (45° C., 30% w/w, Day 3)
0 cells/mL: The Number of Viable Cell (37° C., 30% w/w, Day 56) | The Number of Viable Cell (37° C., 40% w/w, Day 56) | The Number of Viable Cell (45° C., 30% w/w, Day 7) | The Number of Viable Cell (45° C., 30% w/w, Day 14) | The Number of Viable Cell (45° C., 30% w/w, Day 28) | The Number of Viable Cell (45° C., 30% w/w, Day 56) | The Number of Viable Cell (45° C., 40% w/w, Day 7) | The Number of Viable Cell (45° C., 40% w/w, Day 14) | The Number of Viable Cell (45° C., 40% w/w, Day 28) | The Number of Viable Cell (45° C., 40% w/w, Day 56) | The Number of Viable Cell (45° C., 50% w/w, Day 7) | The Number of Viable Cell (45° C., 50% w/w, Day 14) | The Number of Viable Cell (45° C., 50% w/w, Day 28) | The Number of Viable Cell (45° C., 50% w/w, Day 56) | The Number of Viable Cell (50° C., 30% w/w, Day 3) | The Number of Viable Cell (50° C., 30% w/w, Day 7) | The Number of Viable Cell (50° C., 30% w/w, Day 14) | The Number of Viable Cell (50° C., 30% w/w, Day 28) | The Number of Viable Cell (50° C., 30% w/w, Day 56) | The Number of Viable Cell (50° C., 40% w/w, Day 3) | The Number of Viable Cell (50° C., 40% w/w, Day 7) | The Number of Viable Cell (50° C., 40% w/w, Day 14) | The Number of Viable Cell (50° C., 40% w/w, Day 28) | The Number of Viable Cell (50° C., 40% w/w, Day 56) | The Number of Viable Cell (50° C., 50% w/w, Day 3) | The Number of Viable Cell (50° C., 50% w/w, Day 7) | The Number of Viable Cell (50° C., 50% w/w, Day 14) | The Number of Viable Cell (50° C., 50% w/w, Day 28) | The Number of Viable Cell (50° C., 50% w/w, Day 56)
1130 cells/mL: The Number of Viable Cell (37° C., 40% w/w, Day 28)
1440 cells/mL: The Number of Viable Cell (45° C., 40% w/w, Day 3)
≥ 10000 cells/mL: The Number of Viable Cell (37° C., 30% w/w, Day 0) | The Number of Viable Cell (37° C., 30% w/w, Day 3) | The Number of Viable Cell (37° C., 30% w/w, Day 7) | The Number of Viable Cell (37° C., 30% w/w, Day 14) | The Number of Viable Cell (37° C., 30% w/w, Day 28) | The Number of Viable Cell (37° C., 40% w/w, Day 0) | The Number of Viable Cell (37° C., 40% w/w, Day 3) | The Number of Viable Cell (37° C., 40% w/w, Day 7) | The Number of Viable Cell (37° C., 40% w/w, Day 14) | The Number of Viable Cell (45° C., 30% w/w, Day 0) | The Number of Viable Cell (45° C., 40% w/w, Day 0) | The Number of Viable Cell (45° C., 50% w/w, Day 0) | The Number of Viable Cell (50° C., 30% w/w, Day 0) | The Number of Viable Cell (50° C., 40% w/w, Day 0) | The Number of Viable Cell (50° C., 50% w/w, Day 0)
prevented from growing: growth of the microbes (temperature of 50° C. or more)
1600 cells/mL: The Number of Viable Cell (45° C., 50% w/w, Day 3)
3 days: time after which microbes died (temperature of 50° C. or more)
